Experimental data from patent publication US20090239841A1, “Diaryl Ureas as CB1 Antagonists” (priority 2004, published 2009).

target: T1, hCB1 (Homo sapiens, UniProt P21554); assay: Agonist-induced GTP binding (GTPγ35S) assay at CB1, Example 8; format: biochemical; conditions: IC50 at CB1, determined as described in Example 8; read-out: IC50
T1 construct: made in house; host or cells: Sf9 insect cells (baculovirus), P2 membranes
Outline: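 Membranes from Sf9 cells co-expressing hCB1 and heterotrimeric G-protein (10 μg protein) in Tris pH 7.4 buffer with 5 μM GDP. Test compounds (10^−10–10^−5 M) competed against 1 nM CP55,940 with […] GTPγ35S, 60 min at room temperature. Filter-bound radioactivity by scintillation, expressed as percent above basal.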

T1 sequence (P21554 whole entry): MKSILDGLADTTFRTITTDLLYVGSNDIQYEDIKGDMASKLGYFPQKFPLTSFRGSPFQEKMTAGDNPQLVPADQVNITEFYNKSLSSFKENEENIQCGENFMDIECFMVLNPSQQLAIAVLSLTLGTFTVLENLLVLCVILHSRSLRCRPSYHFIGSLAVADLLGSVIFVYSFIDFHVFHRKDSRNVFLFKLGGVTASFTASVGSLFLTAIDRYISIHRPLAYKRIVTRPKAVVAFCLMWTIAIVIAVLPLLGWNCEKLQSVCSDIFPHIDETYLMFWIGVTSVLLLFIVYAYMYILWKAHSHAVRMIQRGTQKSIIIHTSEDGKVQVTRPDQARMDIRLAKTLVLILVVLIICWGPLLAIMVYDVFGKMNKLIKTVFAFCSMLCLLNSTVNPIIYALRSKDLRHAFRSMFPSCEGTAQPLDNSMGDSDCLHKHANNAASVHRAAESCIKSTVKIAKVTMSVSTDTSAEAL

SMILES	IC50 [nM]
O=C(Nc1cccc(OC(F)F)c1)Nc1ccccc1OC(F)(F)F [Compound 541, 1-[3-(difluoromethoxy)phenyl]-3-[2-(trifluoromethoxy)phenyl]urea]	< 2000
CCOc1ccc(NC(=O)Nc2cccc(C(=O)OC)c2)cc1 [Compound 663, methyl 3-({[(4-ethoxyphenyl)amino]carbonyl}amino)benzoate]	< 2000
CCOc1cccc(NC(=O)Nc2cccc(CC)c2)c1 [Compound 384, 1-(3-ethoxyphenyl)-3-(3-ethylphenyl)urea]	< 2000
Cc1ccc(NC(=O)Nc2ccc(OC(C)C)cc2)cc1F [Compound 692, 1-(3-fluoro-4-methylphenyl)-3-(4-isopropoxyphenyl)urea]	< 2000
CCCCc1ccc(NC(=O)Nc2ccc(C)cc2)cc1 [Compound 295, N-(4-butylphenyl)-N′-(4-methylphenyl)urea]	< 2000
CC(C)c1ccc(NC(=O)Nc2ccc(F)cc2)cc1 [Compound 326, 1-(4-fluorophenyl)-3-(4-isopropylphenyl)urea]	< 2000
COCc1ccc(NC(=O)Nc2ccc(C)cc2)cc1 [Compound 359, 1-[4-(methoxymethyl)phenyl]-3-(4-methylphenyl)urea]	< 2000
CCc1ccc(NC(=O)Nc2ccc(C)c(F)c2)cc1 [Compound 439, 1-(4-ethylphenyl)-3-(3-fluoro-4-methylphenyl)urea]	< 2000
Cc1ccc(NC(=O)Nc2cccc(OCCO)c2)cc1F [Compound 762, 1-(3-fluoro-4-methylphenyl)-3-[3-(2-hydroxyethoxy)phenyl]urea]	< 2000
CCC(=O)c1ccc(NC(=O)Nc2cccc(Cl)c2)cc1 [Compound 493, 1-(3-chlorophenyl)-3-(4-propionylphenyl)urea]	< 2000
CCOC(=O)c1ccc(NC(=O)Nc2ccc(OCC(C)O)cc2)cc1 (stereo not drawn) [Compound 758, ethyl 4-[({[4-(2-hydroxypropoxy)phenyl]amino}carbonyl)amino] benzoate]	< 2000
CCOC(=O)c1ccc(NC(=O)Nc2ccc(OCC)cc2)cc1 [Compound 595, ethyl 4-({[(4-ethoxyphenyl)amino]carbonyl}amino)benzoate]	< 2000
CCC(=O)c1ccc(NC(=O)Nc2ccc(CC)cc2)cc1 [Compound 492, 1-(4-ethylphenyl)-3-(4-propionylphenyl)urea]	< 2000
N#CCOc1ccc(NC(=O)Nc2cccc(Cl)c2)cc1 [Compound 490, 1-(3-chlorophenyl)-3-[4-(cyanomethoxy)phenyl]urea]	< 2000
Cc1ccc(NC(=O)Nc2cccc(O)c2)cc1F [Compound 759, 1-(3-fluoro-4-methylphenyl)-3-(3-hydroxyphenyl)urea]	< 2000
CCOC(=O)c1cccc(NC(=O)Nc2ccc(F)c(C)c2)c1 [Compound 767, ethyl 3-({[(4-fluoro-3-methylphenyl)amino]carbonyl}amino)benzoate]	< 2000
NC(=O)CN1CCN(S(=O)(=O)c2ccc(NC(=O)Nc3cccc(OC(F)F)c3)cc2)CC1 [Compound 793, 2-[4-({4-[({[3-(difluoromethoxy)phenyl]amino}carbonyl)amino]phenyl}sulfonyl)-1-piperazinyl] acetamide]	< 2000
CC(=O)c1ccc(NC(=O)Nc2cccc(Cl)c2)cc1 [Compound 342, 1-(4-acetylphenyl)-3-(3-chlorophenyl)urea]	< 2000
CCOc1ccc(NC(=O)Nc2ccc(CC)cc2)cc1 [Compound 388, 1-(4-ethoxyphenyl)-3-(4-ethylphenyl)urea]	< 2000
CCOC(=O)c1ccc(NC(=O)Nc2cccc(O)c2)cc1 [Compound 746, ethyl 4-({[(3-hydroxyphenyl)amino]carbonyl}amino)benzoate]	< 2000
CCOc1cccc(NC(=O)Nc2ccc(F)c(C)c2)c1 [Compound 682, 1-(3-ethoxyphenyl)-3-(4-fluoro-3-methylphenyl)urea]	< 2000
COc1cccc(NC(=O)Nc2ccc(CC#N)cc2)c1 [Compound 585, 1-[4-(cyanomethyl)phenyl]-3-(3-methoxyphenyl)urea]	< 2000
CCCc1ccc(NC(=O)Nc2cccc(OC)c2)cc1 [Compound 524, 1-(3-methoxyphenyl)-3-(4-propylphenyl)urea]	< 2000
Cc1ccc(NC(=O)Nc2cccc(C#N)c2)cc1Cl [Compound 457, 1-(3-chloro-4-methylphenyl)-3-(3-cyanophenyl)urea]	< 2000

The next lines start with the values.

IC50 [nM]	SMILES
< 2000	CCOc1cccc(NC(=O)Nc2ccc(OC(F)(F)F)cc2)c1 [Compound 531, 1-(3-ethoxyphenyl)-3-[4-(trifluoromethoxy)phenyl]urea]
< 2000	N#CCOc1ccc(NC(=O)Nc2ccc(OC(F)F)cc2)cc1 [Compound 582, 1-[4-(cyanomethoxy)phenyl]-3-[4-(difluoromethoxy)phenyl]urea]
< 2000	CCC(=O)c1ccc(NC(=O)Nc2cccc(OC)c2)cc1 [Compound 591, 1-(3-methoxyphenyl)-3-(4-propionylphenyl)urea]
< 2000	CCOc1cccc(NC(=O)Nc2ccc(C(C)C)cc2)c1 [Compound 570, 1-(3-ethoxyphenyl)-3-(4-isopropylphenyl)urea]
< 2000	CC(=O)c1ccc(NC(=O)Nc2ccc(OC(F)F)cc2)cc1 [Compound 427, 1-(4-acetylphenyl)-3-[4-(difluoromethoxy)phenyl]urea]
< 2000	CCOc1ccc(NC(=O)Nc2cccc(OC(F)F)c2)cc1 [Compound 555, 1-[3-(difluoromethoxy)phenyl]-3-(4-ethoxyphenyl)urea]
< 2000	O=C(Nc1ccccc1)Nc1ccc(OC(F)F)cc1 [Compound 306, N-[4-(difluoromethoxy)phenyl]-N′-phenylurea]

same assay, conditions: Table I; IC50 at CB1, GTP binding with 1 nM CP55,940; read-out: IC50

IC50 [nM]	SMILES
< 2000	CC(=O)c1cccc(NC(=O)Nc2ccc(OC(F)F)cc2)c1 [Compound 12, N-(3-acetylphenyl)-N′-[4-(difluoromethoxy)phenyl]urea]

same assay, conditions: Table II; IC50 at CB1, GTP binding with 1 nM CP55,940; read-out: IC50

SMILES	IC50 [nM]
CCOc1cccc(NC(=O)Nc2ccc(C(C)=O)cc2)c1 [Compound 263, N-(4-acetylphenyl)-N′-(3-ethoxyphenyl)urea]	< 2000
COCc1ccc(NC(=O)Nc2cccc(C(C)=O)c2)cc1 [Compound 270, N-(3-acetylphenyl)-N′-[4-(methoxymethyl)phenyl]urea]	< 2000
CCOc1ccc(NC(=O)Nc2cccc(C(C)=O)c2)cc1 [Compound 266, N-(3-acetylphenyl)-N′-(4-ethoxyphenyl)urea]	< 2000
CC(=O)c1cccc(NC(=O)Nc2ccc(C(C)C)cc2)c1 [Compound 195, N-(3-acetylphenyl)-N′-(4-isopropylphenyl)urea]	< 2000
CC(=O)c1ccc(NC(=O)Nc2ccc(C(C)C)cc2)cc1 [Compound 196, N-(4-acetylphenyl)-N′-(4-isopropylphenyl)urea]	< 2000
CCc1cccc(NC(=O)Nc2ccc(C(C)=O)cc2)c1 [Compound 190, N-(4-acetylphenyl)-N′-(3-ethylphenyl)urea]	< 2000
CCOc1cccc(NC(=O)Nc2cccc(CC)c2)c1 [Compound 230, N-(3-ethoxyphenyl)-N′-(3-ethylphenyl)urea]	< 2000
CCOc1ccc(NC(=O)Nc2ccc(C(C)=O)cc2)cc1 [Compound 267, N-(4-acetylphenyl)-N′-(4-ethoxyphenyl)urea]	< 2000
CCc1ccc(NC(=O)Nc2cccc(COC)c2)cc1 [Compound 238, N-(4-ethylphenyl)-N′-[3-(methoxymethyl)phenyl]urea]	< 2000
CCOc1cccc(NC(=O)Nc2ccc(CC)cc2)c1 [Compound 231, N-(3-ethoxyphenyl)-N′-(4-ethylphenyl)urea]	< 2000
Cc1ccc(NC(=O)Nc2ccc(C(C)C)cc2)cc1 [Compound 157, N-(4-isopropylphenyl)-N′-(4-methylphenyl)urea]	< 2000

The next lines start with the values.

IC50 [nM]	SMILES
< 2000	O=C(Nc1ccc(OC(F)F)cc1)Nc1cccc(Oc2ncccn2)c1 [Compound 108, N-[4-(difluoromethoxy)phenyl]-N′-[3-(pyrimidin-2-yloxy)phenyl]urea]
< 2000	Cc1ccccc1NC(=O)Nc1cccc(OC(F)F)c1 [Compound 226]
< 2000	COc1ccc(-c2cccc(NC(=O)Nc3ccc(OC(F)F)cc3)c2)nc1Cl [Compound 123, N-[3-(6-chloro-5-methoxypyridin-2-yl)phenyl]-N′-[4-(difluoromethoxy)phenyl]urea]
< 2000	CCOc1cccc(NC(=O)Nc2ccc(Cl)cc2)c1 [Compound 233, N-(4-chlorophenyl)-N′-(3-ethoxyphenyl)urea]
< 2000	CCOc1ccc(NC(=O)Nc2cccc(Cl)c2)cc1 [Compound 236, N-(3-chlorophenyl)-N′-(4-ethoxyphenyl)urea]
< 2000	CC(=O)c1cccc(NC(=O)Nc2cccc(OC(F)F)c2)c1 [Compound 285, N-(3-acetylphenyl)-N′-[3-(difluoromethoxy)phenyl]urea]
< 2000	N#Cc1ccc(NC(=O)Nc2ccc(OC(F)F)cc2)cc1 [Compound 287, N-(4-cyanophenyl)-N′-[4-(difluoromethoxy)phenyl]urea]
< 2000	O=C(Nc1ccc(OC(F)F)cc1)Nc1ccc2c(c1)CCC2 [Compound 80, N-[4-(difluoromethoxy)phenyl]-N′-(2,3-dihydro-1H-inden-5-yl)urea]
< 2000	O=C(Nc1ccc(Oc2ccccc2)cc1)Nc1ccc(OC(F)F)cc1 [Compound 86, N-[4-(difluoromethoxy)phenyl]-N′-(4-phenoxyphenyl)urea]
< 2000	Cc1cc(-c2cccc(NC(=O)Nc3ccc(OC(F)F)cc3)c2)cc(C)n1 [Compound 120, N-[4-(difluoromethoxy)phenyl]-N′-[3-(2,6-dimethylpyridin-4-yl)phenyl]urea]
< 2000	COC(=O)c1ccc(NC(=O)Nc2ccc(OC(F)F)cc2)cc1 [Compound 132, methyl 4-[({[4-(difluoromethoxy)phenyl]amino}carbonyl)amino]benzoate]
